For assay [1], the system named is adjuvant-induced polyarthritis (hind paw volume). In words: Modified developing adjuvant arthritis in rats (adjuvant-induced polyarthritis, AIP). The class given is in vivo, male Lewis rats. Particulars: for inhibition in vivo at 100 mg/kg: 100 mg/kg once daily p.o. d. 1-8. On the procedure:
A. Modified Developing Adjuvant Arthritis in Rats
This test is based on the procedure originally described by Pearson (Proc. Soc. Biol. Med., 1956, pp 91-5). Each experimental group used six male Lewis rats weighing approx. 250 gm. Arthritis was produced by a single intradermal injection of Mycobacterium butyricum (0.6 mg in 0.1 ml mineral oil) into the base of the tail. Test compounds were administered orally, once daily, starting on the day of inoculation (day 1) through day 8. The initial dosage was reduced during this period when side effects were observed. The paw volume (average of two hind paws) was measured by the merccury displacement method at least twice weekly during the course of the experiment (40 to 42 days). The efficacy of a compound was expressed as the percent reduction of hind paw volume of treated vs. untreated rats using the following equation: [formula]
^a once daily, p.o., from d. 1-8 (unless otherwise specified).
^b % Inhibition of paw edema: 0 = <25; + = 25- <40; ++ = 40-<60; +++

For assay [2], the system named is delayed-type hypersensitivity (DTH) response. In words: Delayed type hypersensitivity (DTH) response to Mycobacterium butyricum challenge in rats. The class given is in vivo, male Lewis rats. Here is the method:
C. Delayed Type Hypersensitivity (DTH)
Male Lewis rats were immunized on Day 1. Mycobacterium butyricum in mineral oil (6 mg/ml) was injected into the base of the tail at 0.1 ml per rat. A negative control group receiving an equal amount of mineral oil was included. Drug therapy was administered orally from day one to day eight. Delayed type hypersensitivity was tested on day 9. Purified protein derivative (Tuberculin PPD, Statens Seruminstitute, Tuberculin Department, DK-2300 Copenhagen S, Denmark) was dissolved in phosphate buffered saline at 2.5 mg/ml. Twenty μl (50 μg) of the PPD solution was injected intradermally into the right ear of the rat, and the conralateral ear received 20 μl of the phosphate buffered saline vehicle. Forty-eight hours after injection the thickness of both ears was measured to the nearest 0.01 mm using a hand held caliper. The difference between the thickness of right and left ears was defined as the delta value for each rat. Group means and standard errors were compared using a Dunnett's 2-tail test.

Assay [3] deals with adjuvant-induced arthritis. Particulars: J. Med. Chem., 1979, 22:1385-9; cited from earlier work.
Setting [4] is: Rattus norvegicus, po, 480 h, read d. 20-22, read-out: AIP Inhib. score (% Inhibition of paw edema) d. 20-22.
Where [5] appears, read: Rattus norvegicus, po, 960 h, read d. 40-42, read-out: AIP Inhib. score (% Inhibition of paw edema) d. 40-42.

Where two headings read alike, the source gives them in different places. Where only a bound is given, the exact number is not on record here.

With `CNC(=O)C(C#N)C(=O)C1CC1` (stereo not drawn) [Example 1, β-Cyclopropyl-β-oxo-α-methylcarbamoylpropionitrile], the inhibition in vivo at 100 mg/kg in assay [1] (setting [4]) and in assay [1] (setting [5]) was 80 to 100% in each case. Moreover, the entries for the “% Reduction-DTH” value in assay [2] (10 mg/kg/d × 8 d. p.o.), in assay [2] (30 mg/kg/d × 8 d. p.o.) and in assay [2] (60 mg/kg/d × 8 d. p.o.) were 20%, 41% and 56%, respectively. In assay [2] (arthritic rats), the “immunomodulating activity (ability to reduce delayed hypersensitivity)” value was “exhibits immunomodulating activity”.

On to `N#CC(C(=O)NC1CCC1)C(=O)C1CC1` (stereo not drawn) [Example 6, α-Cyclobutylcarbamoyl-β-cyclopropyl-β-oxopropionitrile], for which the inhibition in vivo at 100 mg/kg in assay [1] (setting [4]) and in assay [1] (setting [5]) was 25 to 40% in each case.

Turning to `C#CCNC(=O)C(C#N)C(=O)C1CC1` (stereo not drawn) [Example 4, β-Cyclopropyl-β-oxo-α-propargylcarbamoylpropionitrile], the “AIP Inhib. score (% Inhibition of paw edema) d. 40-42” value in assay [1] (50 mg/kg once daily p.o. d. 1-8, read d. 40-42) is recorded as “++ +”. Moreover, the inhibition in vivo at 50 mg/kg in assay [1] (Rattus norvegicus, po, 480 h, 50 mg/kg once daily p.o. d. 1-8, read d. 20-22, read-out: AIP Inhib. score (% Inhibition of paw edema) d. 20-22) fell in the range of 60 to 80%.

On to `CN(C)C(=O)C(C#N)C(=O)C1CC1` (stereo not drawn) [Example 3, β-Cyclopropyl-α-dimethylcarbamoyl-β-oxopropionitrile], for which the inhibition in vivo at 100 mg/kg in assay [1] (setting [4]) and in assay [1] (setting [5]) was 60 to 80% throughout.

On to `CNC(=O)C(C#N)C(=O)C1CCC1` (stereo not drawn) [Example 7, β-Cyclobutyl-β-oxo-α-methylcarbamoylpropionitrile], for which the inhibition in vivo at 100 mg/kg in assay [1] (setting [4]) is less than 25%; in assay [1] (setting [5]), 25 to 40%.

In the case of `N#CCC(=O)c1ccccc1` [Benzoylacetonitrile (I), Benzoylacetonitrile], in assay [3], the “inhibition of adjuvant-induced arthritis in rats” value is on record as “effective inhibitors of adjuvant-induced arthritis in rats”.

(Values after patent US4888357A, “Antiarthritic β-cycloalkyl-β-oxopropionitriles” (Bristol-Myers Company, priority 1988, dated 1989).)
